Assay results reported in PubChem BioAssay (NCI).
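Dose response: 5 concentrations. Exposure: 48 h. Format: 96-well plates. Endpoint: linear interpolation; highest concentration if not reached. GI50 = concentration required for 50% inhibition of growth. The concentration for full growth arrest is given as TGI.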

Legend:
Experiment in all cases: inhibition of tumour cell growth, NCI panel, 48 h
NCI-H23 lung = system: NCI-H23 lung
NCI-H460 lung = system: NCI-H460 lung
NCI-H522 lung = system: NCI-H522 lung
NCI/ADR-RES ovarian = system: NCI/ADR-RES ovarian
OVCAR-3 ovarian = system: OVCAR-3 ovarian
OVCAR-4 ovarian = system: OVCAR-4 ovarian
OVCAR-5 ovarian = system: OVCAR-5 ovarian
OVCAR-8 ovarian = system: OVCAR-8 ovarian
PC-3 prostate = system: PC-3 prostate
RPMI-8226 leukemia = system: RPMI-8226 leukemia
RXF 393 renal = system: RXF 393 renal
SF-268 CNS = system: SF-268 CNS
SF-295 CNS = system: SF-295 CNS
SF-539 CNS = system: SF-539 CNS
SK-MEL-2 melanoma = system: SK-MEL-2 melanoma
SK-MEL-28 melanoma = system: SK-MEL-28 melanoma
SK-MEL-5 melanoma = system: SK-MEL-5 melanoma
SK-OV-3 ovarian = system: SK-OV-3 ovarian
SN12C renal = system: SN12C renal
SNB-19 CNS = system: SNB-19 CNS
SNB-75 CNS = system: SNB-75 CNS
SR leukemia = system: SR leukemia
SW-620 colon = system: SW-620 colon
T-47D breast = system: T-47D breast
TK-10 renal = system: TK-10 renal
U251 CNS = system: U251 CNS
UACC-257 melanoma = system: UACC-257 melanoma
UACC-62 melanoma = system: UACC-62 melanoma
UO-31 renal = system: UO-31 renal

In the case of `O=C(Nc1ccccc1Cl)c1cnc2ccc(C3CCNCC3)cn12`, the GI50 (NCI-H23 lung) was 74.5 µM, the TGI (NCI-H23 lung) was greater than 100 µM and the GI50 (NCI-H460 lung) was greater than 87.3 µM. It also gave a TGI (NCI-H460 lung) greater than 100 µM, a GI50 (NCI-H522 lung) of 1.06 µM and a TGI (NCI-H522 lung) greater than 100 µM. It also gave a GI50 (NCI/ADR-RES ovarian) of 39.2 µM, a TGI (NCI/ADR-RES ovarian) greater than 100 µM and a GI50 (OVCAR-3 ovarian) of 5.6 µM. It also gave a TGI (OVCAR-3 ovarian) greater than 100 µM, a GI50 (OVCAR-4 ovarian) greater than 75.1 µM and a TGI (OVCAR-4 ovarian) greater than 100 µM. The GI50 (OVCAR-5 ovarian) was 1.9 µM, the TGI (OVCAR-5 ovarian) was greater than 100 µM and the GI50 (OVCAR-8 ovarian) was 13.5 µM. For the same molecule, the TGI (OVCAR-8 ovarian) was greater than 100 µM, the GI50 (PC-3 prostate) was 14.3 µM and the TGI (PC-3 prostate) was greater than 100 µM. It also gave a GI50 (RPMI-8226 leukemia) greater than 69 µM, a TGI (RPMI-8226 leukemia) greater than 100 µM and a GI50 (RXF 393 renal) of 0.802 µM. The TGI (RXF 393 renal) was 4.84 µM, the GI50 (SF-268 CNS) was 9.04 µM and the TGI (SF-268 CNS) was greater than 100 µM. For the same molecule, the GI50 (SF-295 CNS) was 24.8 µM, the TGI (SF-295 CNS) was greater than 83.9 µM and the GI50 (SF-539 CNS) was 4.94 µM. The TGI (SF-539 CNS) was greater than 100 µM, the GI50 (SK-MEL-2 melanoma) was 42.3 µM and the TGI (SK-MEL-2 melanoma) was greater than 94 µM. For the same molecule, the GI50 (SK-MEL-28 melanoma) was 18.4 µM, the TGI (SK-MEL-28 melanoma) was 43.3 µM and the GI50 (SK-MEL-5 melanoma) was 13 µM. The TGI (SK-MEL-5 melanoma) was 26.6 µM, the GI50 (SK-OV-3 ovarian) was 3.05 µM and the TGI (SK-OV-3 ovarian) was greater than 100 µM. For the same molecule, the GI50 (SN12C renal) was 3.71 µM, the TGI (SN12C renal) was greater than 100 µM and the GI50 (SNB-19 CNS) was greater than 87.7 µM. For the same molecule, the TGI (SNB-19 CNS) was greater than 100 µM, the GI50 (SNB-75 CNS) was 0.15 µM and the TGI (SNB-75 CNS) was 5.02 µM. For the same molecule, the GI50 (SR leukemia) was 37.2 µM, the TGI (SR leukemia) was greater than 100 µM and the GI50 (SW-620 colon) was greater than 100 µM. For the same molecule, the TGI (SW-620 colon) was greater than 100 µM, the GI50 (T-47D breast) was 5.53 µM and the TGI (T-47D breast) was greater than 100 µM. It also gave a GI50 (TK-10 renal) of 1.92 µM, a TGI (TK-10 renal) of 12.2 µM and a GI50 (U251 CNS) of 51.7 µM. The TGI (U251 CNS) was greater than 100 µM, the GI50 (UACC-257 melanoma) was 16.2 µM and the TGI (UACC-257 melanoma) was 37.1 µM. The GI50 (UACC-62 melanoma) was 14.2 µM, the TGI (UACC-62 melanoma) was 56.7 µM and the GI50 (UO-31 renal) was 2.13 µM. The TGI (UO-31 renal) was greater than 100 µM.
